The record followed here is ChEMBL document CHEMBL3044944, “Synthesis and evaluation of meta substituted 1-(aryloxypropyl)-4-(chloroaryl) piperazines as potential atypical antipsychotics” (2013).

SMILES strings stand for the structures. The source made the active and inactive calls. The rule behind the calls is not given here.

For experiment [1], the system named is Mus musculus. Kind of experiment: Antipsychotic activity in Mus musculus albino lyka (mouse) assessed as reversal of apomorphine-induced stereotypy at 5 to 10 mg/kg, ip administered 10 min prior to apomorphine challenge measured after 10 to 30 min. The experiment is classed as functional, organism-based.
In experiment [2] the test system is Mus musculus. As to the kind of experiment: Antipsychotic activity in Mus musculus albino lyka (mouse) assessed as reversal of apomorphine-induced mesh climbing at 5 to 10 mg/kg, ip administered 10 min prior to apomorphine challenge measured after 10 to 30 min. The experiment is classed as functional, organism-based.
In experiment [3] the test system is Mus musculus. Kind of experiment: Antipsychotic activity in ip dosed Mus musculus albino lyka (mouse) assessed as reversal of apomorphine-induced mesh climbing administered 10 min prior to apomorphine challenge measured after 10 to 30 min. Format: functional. The settings on record: for ED50: Mus musculus, albino lyka, ip.

As for `CC(=O)c1cccc(OCCCN2CCN(C(=O)c3ccc(Cl)cc3)CC2)c1`, the result in experiment [1] was Active. In addition, in experiment [2], the result was inactive.

For orientation: ED50 means the dose that gives a 50% effect, or the effect in half of the subjects. With `CC(=O)c1cccc(OCCCN2CCN(Cc3ccccc3Cl)CC2)c1`, the result in experiment [1] was inactive. Moreover, in experiment [3], the logED50 amounted to 0.903 and the ED50 was determined as 8 mg/kg.

With `O=Cc1cccc(OCCCN2CCN(C(=O)c3ccccc3Cl)CC2)c1`, the result in experiment [1] was Active. In addition, the result in experiment [2] was inactive.

For `CC(=O)c1cccc(OCCCN2CCN(Cc3ccc(Cl)cc3)CC2)c1`, in experiment [1], the outcome was inactive. Besides, in experiment [3], the logED50 came to 0.857 and the ED50 worked out at 7.2 mg/kg.

Regarding `O=Cc1cccc(OCCCN2CCN(Cc3ccc(Cl)cc3)CC2)c1`, in experiment [1], the result was Active. In experiment [3], the logED50 was found to be 1 and the ED50 turned out to be 10 mg/kg.

As for `O=Cc1cccc(OCCCN2CCN(C(=O)c3ccc(Cl)cc3)CC2)c1`, in experiment [1], the outcome was Active. Moreover, the result in experiment [2] was inactive.

With `O=Cc1cccc(OCCCN2CCN(Cc3ccccc3Cl)CC2)c1`, the result in experiment [1] was inactive. For the same molecule, in experiment [3], the logED50 was 0.799 and the ED50 came out at 6.3 mg/kg.

`CC(=O)c1cccc(OCCCN2CCN(C(=O)c3ccccc3Cl)CC2)c1`: the result in experiment [1] was Active. Moreover, the outcome in experiment [2] was inactive.
